Experimental data taken from patent EP4707284A1, “HETEROCYCLIC COMPOUND AND USE THEREOF” (Otsuka Pharmaceutical Co., Ltd., priority 2023, dated 2024).

Assay: Dog irritation study (subcutaneous administration)
Type: in vivo, dogs
Conditions: stated in the cytotoxicity method, no details
Method: Male beagle dogs were purchased at the age of 5-7 months from Kitayama Labes Co., Ltd. and used in the experiment after acclimatization. The breeding environment was as follows: feeding: 250 g of solid feed once a day, water intake: unlimited, number of animals per cage: 1, temperature: 21-25°C, humidity: 50-70%, lighting time: 7:00-19:00. The test formulation was subcutaneously administered to dogs anesthetized with 25 mg/kg thiopental sodium using a plastic syringe at a dose of 10 mg/kg per formulation, changing the position on the back. […] The collected tissues were fixed in 10% neutral buffered formalin, and hematoxylin and eosin-stained specimens were prepared for histopathological examination.

CCCCCC(=O)OCn1c(=O)ccc2ccc(OCCCCN3CCN(c4cccc5sccc45)CC3)cc21 [Reference Example 3 compound, (7-(4-(4-(benzo[b]thiophen-4-yl)piperazin-1-yl)butoxy)-2-oxoquinolin-1(2H)-yl)methyl hexanoate]
irritation when subcutaneously administered to dogs: showed irritation
